Each structure is given as a SMILES string.

Experiment [1] addresses T1, Prothrombin (Homo sapiens, UniProt P00734).
Experiment [2] deals with T1, Prothrombin. This is another data set of the same source.
The target in experiment [3] is Tissue-type plasminogen activator (Homo sapiens) (UniProt P00750). In words: Binding constant on Tissue type plasminogen activator was determined at 15 percent and at 90 minutes for maximum inhibition and no enzyme activity was recovered over the 2 h-time.
Experiment [4] has as its target T2, Plasminogen (Homo sapiens, UniProt P00747). The experiment can be described thus: Binding constant on plasmin was determined at 0 percent and at 98 minutes for maximum inhibition and no enzyme activity was recovered over the 2 h-time.
In experiment [5] the target is T3, Urokinase-type plasminogen activator (Homo sapiens, UniProt P00749).
Experiment [6] deals with T3, Urokinase-type plasminogen activator. The source holds these as a separate data set.
Description: Specificity constant on Urokinase-type plasminogen activator was determined at 0 percent and at 91 minutes for maximum inhibition and no enzyme activity was recovered over the 2 h-time
Experiment [7] concerns the target T4, Serine protease 1 (Homo sapiens, UniProt P07477). The experiment can be described thus: Binding constant on trypsin was determined at 0 percent and at 99 minutes for maximum inhibition and no enzyme activity was recovered over the 2 h-time.
For experiment [8], the target named is T1, Prothrombin. The experiment can be described thus: Binding constant on thrombin was determined at 15 percent and at 98 minutes for maximum inhibition and no enzyme activity was recovered over the 2 h-time.
For experiment [9], the target named is T4, Serine protease 1. The experiment can be described thus: Rate constant of acylation on trypsin was determined at 0 percent and at 99 minutes for maximum inhibition and no enzyme activity was recovered over the 2 h-time.
Experiment [10] concerns the target T1, Prothrombin. The experiment can be described thus: Rate constant of deacylation for thrombin.
The target of experiment [11] is T2, Plasminogen.
Experiment [12] deals with T4, Serine protease 1. In words: Specificity constant on trypsin was determined at 0 percent and at 99 minutes for maximum inhibition and no enzyme activity was recovered over the 2 h-time.
For experiment [13], the target named is T2, Plasminogen. The source holds these as a separate data set.
Experiment [14] concerns the target Tissue-type plasminogen activator (Homo sapiens) (UniProt P00750).
The target in experiment [15] is T2, Plasminogen. In words: Rate constant of deacylation for plasmin; Fast and could not be measured.
In experiment [16] the target is T3, Urokinase-type plasminogen activator. The experiment can be described thus: Rate constant of deacylation for Urokinase-type plasminogen activator.
The target of experiment [17] is T4, Serine protease 1. The experiment can be described thus: Rate constant of deacylation for trypsin.
For experiment [18], the target named is T5, Chymotrypsin-like elastase family member 2A (Sus scrofa) (UniProt P08419).
T5 sequence (whole entry): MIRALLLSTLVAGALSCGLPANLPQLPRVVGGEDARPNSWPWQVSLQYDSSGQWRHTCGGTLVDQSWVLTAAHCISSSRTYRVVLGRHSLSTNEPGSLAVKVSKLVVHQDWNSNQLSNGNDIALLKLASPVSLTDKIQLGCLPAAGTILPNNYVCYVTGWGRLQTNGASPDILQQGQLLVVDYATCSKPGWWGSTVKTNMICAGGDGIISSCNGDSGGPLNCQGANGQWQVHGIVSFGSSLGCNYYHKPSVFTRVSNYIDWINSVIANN
The experiment can be described thus: Rate constant of acylation on porcine pancreatic elastase was determined at 60 percent and at 30 minutes for maximum inhibition and no enzyme activity was recovered over the 2 h-time.

The target of experiment [19] is T6, Neutrophil elastase (Homo sapiens) (UniProt P08246).
T6 sequence (whole entry): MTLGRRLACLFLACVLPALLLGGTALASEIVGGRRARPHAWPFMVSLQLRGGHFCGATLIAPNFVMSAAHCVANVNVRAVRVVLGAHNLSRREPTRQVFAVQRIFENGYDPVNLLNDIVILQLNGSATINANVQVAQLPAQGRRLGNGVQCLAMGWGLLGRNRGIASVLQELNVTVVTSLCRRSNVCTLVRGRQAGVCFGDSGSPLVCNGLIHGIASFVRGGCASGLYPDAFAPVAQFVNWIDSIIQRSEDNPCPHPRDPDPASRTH
The experiment can be described thus: Binding constant on human neutrophil elastase was determined at 18 percent and at 26 minutes for maximum inhibition and no enzyme activity was recovered over the 2 h-time.

Experiment [20] addresses T5, Chymotrypsin-like elastase family member 2A (Sus scrofa). The experiment can be described thus: Specificity constant on porcine pancreatic elastase was determined at 60 percent and at 30 minutes for maximum inhibition and no enzyme activity was recovered over the 2 h-time.
The target in experiment [21] is T6, Neutrophil elastase (Homo sapiens). In words: Rate constant of acylation on human neutrophil elastase was determined at 18 percent and at 26 minutes for maximum inhibition and no enzyme activity was recovered over the 2 h-time.
Experiment [22] has as its target T5, Chymotrypsin-like elastase family member 2A (Sus scrofa). The experiment can be described thus: Binding constant on porcine pancreatic elastase was determined at 60 percent and at 30 minutes for maximum inhibition and no enzyme activity was recovered over the 2 h-time.
The target of experiment [23] is T6, Neutrophil elastase (Homo sapiens). The experiment can be described thus: Specificity constant on human neutrophil elastase was determined at 18 percent and at 26 minutes for maximum inhibition and no enzyme activity was recovered over the 2 h-time.
For experiment [24] the target is unchanged. In words: Specificity constant on human neutrophil elastase was determined at 90 percent and at 93 minutes for maximum inhibition and no enzyme activity was recovered over the 2 h-time.
Experiment [25] deals with T5, Chymotrypsin-like elastase family member 2A (Sus scrofa). In words: Specificity constant on porcine pancreatic elastase was determined at 30 percent and at 99 minutes for maximum inhibition and no enzyme activity was recovered over the 2 h-time.
For experiment [26], the target named is T4, Serine protease 1. In words: Rate constant of acylation on trypsin was determined at 10 percent and at 95 minutes for maximum inhibition and no enzyme activity was recovered over the 2 h-time.
The target of experiment [27] is T4, Serine protease 1. In words: Binding constant on trypsin was determined at 10 percent and at 95 minutes for maximum inhibition and no enzyme activity was recovered over the 2 h-time.
Experiment [28] has as its target T6, Neutrophil elastase (Homo sapiens). In words: Rate constant of acylation on human neutrophil elastase was determined at 90 percent and at 93 minutes for maximum inhibition and no enzyme activity was recovered over the 2 h-time.
Experiment [29] has as its target T5, Chymotrypsin-like elastase family member 2A (Sus scrofa). The experiment can be described thus: Rate constant of acylation on porcine pancreatic elastase was determined at 30 percent and at 99 minutes for maximum inhibition and no enzyme activity was recovered over the 2 h-time.
The target in experiment [30] is T4, Serine protease 1. In words: Specificity constant on trypsin was determined at 10 percent and at 95 minutes for maximum inhibition and no enzyme activity was recovered over the 2 h-time.
The target of experiment [31] is T6, Neutrophil elastase (Homo sapiens). The experiment can be described thus: Binding constant on human neutrophil elastase was determined at 90 percent and at 93 minutes for maximum inhibition and no enzyme activity was recovered over the 2 h-time.
In experiment [32] the target is Chymotrypsinogen A (Bos taurus) (UniProt P00766). In words: Binding constant on alpha-chymotrypsin was determined at 10 percent and at 99 minutes for maximum inhibition and no enzyme activity was recovered over the 2 h-time.
Experiment [33] has the same target. The experiment can be described thus: Rate constant of acylation on alpha-chymotrypsin was determined at 10 percent and at 99 minutes for maximum inhibition and no enzyme activity was recovered over the 2 h-time.
For experiment [34] the target is unchanged. In words: Specificity constant on alpha-chymotrypsin was determined at 10 percent and at 99 minutes for maximum inhibition and no enzyme activity was recovered over the 2 h-time.
The target in experiment [35] is T5, Chymotrypsin-like elastase family member 2A (Sus scrofa). In words: Binding constant on porcine pancreatic elastase was determined at 30 percent and at 99 minutes for maximum inhibition and no enzyme activity was recovered over the 2 h-time.

T4 sequence (P07477 whole entry): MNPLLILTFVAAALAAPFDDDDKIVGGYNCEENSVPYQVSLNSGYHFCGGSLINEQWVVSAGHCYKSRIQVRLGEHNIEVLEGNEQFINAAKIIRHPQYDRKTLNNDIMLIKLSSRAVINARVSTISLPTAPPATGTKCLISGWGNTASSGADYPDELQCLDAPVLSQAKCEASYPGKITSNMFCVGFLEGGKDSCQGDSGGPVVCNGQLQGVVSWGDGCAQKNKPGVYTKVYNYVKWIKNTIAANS
T2 sequence (P00747 97-580 limits assumed): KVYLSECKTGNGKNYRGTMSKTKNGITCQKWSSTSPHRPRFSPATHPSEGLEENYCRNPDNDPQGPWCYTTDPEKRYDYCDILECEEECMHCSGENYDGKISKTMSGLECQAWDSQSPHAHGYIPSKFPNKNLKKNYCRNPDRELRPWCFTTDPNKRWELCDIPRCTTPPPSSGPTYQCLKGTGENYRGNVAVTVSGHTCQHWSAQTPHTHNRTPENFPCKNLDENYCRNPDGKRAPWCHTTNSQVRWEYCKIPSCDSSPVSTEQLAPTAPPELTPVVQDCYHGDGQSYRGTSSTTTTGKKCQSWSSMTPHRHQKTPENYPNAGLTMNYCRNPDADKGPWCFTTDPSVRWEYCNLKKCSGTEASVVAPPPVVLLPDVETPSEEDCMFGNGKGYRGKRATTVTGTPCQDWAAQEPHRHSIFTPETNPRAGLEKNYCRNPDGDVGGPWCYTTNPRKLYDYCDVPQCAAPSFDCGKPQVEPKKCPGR
T2 sequence (P00747 581-810 limits assumed): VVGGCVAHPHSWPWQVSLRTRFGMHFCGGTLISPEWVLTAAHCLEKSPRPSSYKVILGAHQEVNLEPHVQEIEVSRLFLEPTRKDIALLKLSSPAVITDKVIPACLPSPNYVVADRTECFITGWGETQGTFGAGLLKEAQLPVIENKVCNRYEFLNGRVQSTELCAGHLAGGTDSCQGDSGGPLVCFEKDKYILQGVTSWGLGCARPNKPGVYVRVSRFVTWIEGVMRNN
Chain of Tissue-type plasminogen activator (Homo sapiens) (P00750 36-562 limits assumed): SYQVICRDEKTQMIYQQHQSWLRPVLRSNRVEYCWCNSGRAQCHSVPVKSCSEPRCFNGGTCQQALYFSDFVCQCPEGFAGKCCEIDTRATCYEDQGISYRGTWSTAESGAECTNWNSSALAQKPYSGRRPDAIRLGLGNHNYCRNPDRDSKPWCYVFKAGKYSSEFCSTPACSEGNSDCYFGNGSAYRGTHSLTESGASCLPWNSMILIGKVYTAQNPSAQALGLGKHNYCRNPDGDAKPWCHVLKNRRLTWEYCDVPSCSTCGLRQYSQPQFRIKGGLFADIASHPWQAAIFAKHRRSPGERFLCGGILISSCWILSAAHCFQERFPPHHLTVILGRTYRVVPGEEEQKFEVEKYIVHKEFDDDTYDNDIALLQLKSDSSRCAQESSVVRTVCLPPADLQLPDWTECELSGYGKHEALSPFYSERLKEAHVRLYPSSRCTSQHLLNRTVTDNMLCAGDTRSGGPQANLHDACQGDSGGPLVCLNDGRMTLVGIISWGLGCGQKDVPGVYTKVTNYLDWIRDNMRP

Regarding `N=C(N)NCc1ccc(C2CC/C(=C\I)OC2=O)cc1` (stereo not given), the ka is 27.2 min⁻¹ on Prothrombin [1]; 7.56 min⁻¹ in [5]; 18.4 min⁻¹ at Serine protease 1 [9]; 10.2 min⁻¹ at Plasminogen [11]; “Not measurable” in [14]. For the same compound, the ka/Ki on Prothrombin [2] came to 33300 M⁻¹ s⁻¹; in experiment [6], 1.26e+07 M⁻¹ s⁻¹; on Serine protease 1 [12], 3.83e+06 M⁻¹ s⁻¹; on Plasminogen [13] it was 150000 M⁻¹ s⁻¹. Also, the Ks/i in [3] was 0.12 µM; at Plasminogen [4], 1.19 µM; at Serine protease 1 [7], 0.08 µM; on Prothrombin [8] it was 14.8 µM. The Kd at Prothrombin [10] turned out to be 0.000217 s⁻¹.
As for `C=C1CC(c2ccc(NC(=N)N)cc2)CC(=O)O1` (stereo not given), the Kd entry at Plasminogen [15] is “Not measurable”; in [16], 0.00015 s⁻¹; at Serine protease 1 [17], 3.3e-05 s⁻¹.
Consider `CC1(C)CC(=O)O/C(=C/Br)C1`, for which the ka came out at 0.43 min⁻¹ in experiment [18] and 1.8 min⁻¹ in [21]. In addition, the Ks/i in [19] was determined as 43.5 µM; in experiment [22] it was 284 µM. Besides, the ka/Ki is 33.3 M⁻¹ s⁻¹ in experiment [20] and 667 M⁻¹ s⁻¹ in experiment [23].
As for `CC(C)C1CC/C(=C\Br)OC1=O` (stereo not given), the ka/Ki in experiment [24] was 14500 M⁻¹ s⁻¹; in [25], 333 M⁻¹ s⁻¹; on Serine protease 1 [30], 667 M⁻¹ s⁻¹; in experiment [34], 10000 M⁻¹ s⁻¹. For the same compound, the ka at Serine protease 1 [26] is 1.8 min⁻¹; in [28], 0.67 min⁻¹; in experiment [29] it was 0.52 min⁻¹; in experiment [33] it was 6 min⁻¹. The Ks/i at Serine protease 1 [27] came to 44 µM; in [31] it was 0.77 µM; in experiment [32], 9.8 µM; in experiment [35], 26.9 µM.

The values are drawn from ChEMBL document CHEMBL1126229, “Enol lactone derivatives as inhibitors of human neutrophil elastase and trypsin-like proteases” (Bioorg Med Chem Lett, 1992).
